Laboratory results: US9850225B2, “Compounds useful as immunomodulators” (BRISTOL-MYERS SQUIBB COMPANY, priority 2014, dated 2017)
pIC50: −log10 of the molar value.

What follows are compounds tested against PD-1/PD-L1 interaction (PD-1-Ig / PD-L1-His) (Homo sapiens (Human), UniProt Q9NZQ7) (assay: PD-1/PD-L1 Homogenous Time-Resolved Fluorescence (HTRF) binding assay). Conditions: PD-1/PD-L1 HTRF binding assay; value given as range class; read-out: Range or IC50.
PD-1/PD-L1 interaction (PD-1-Ig / PD-L1-His), sequence (Q9NZQ7 other isoform, or with tags, fused parts or gaps): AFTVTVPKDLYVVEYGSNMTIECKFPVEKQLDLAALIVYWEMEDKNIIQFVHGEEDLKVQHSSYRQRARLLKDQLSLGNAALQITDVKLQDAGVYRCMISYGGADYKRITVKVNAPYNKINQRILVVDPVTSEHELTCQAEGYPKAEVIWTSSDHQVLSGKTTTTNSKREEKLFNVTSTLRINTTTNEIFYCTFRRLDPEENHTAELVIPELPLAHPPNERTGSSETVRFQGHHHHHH
Method in brief: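 Human PD-L1-His (10 nM final) was pre-incubated with inhibitor for 15 min, then PD-1-Ig (20 nM final) was added for a further 15 min in dPBS with 0.1% BSA and 0.05% Tween-20. Binding was detected by HTRF using Eu-cryptate anti-Ig (1 nM) and APC anti-His (20 nM).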
A pIC50 of 8.00 to 9.22 was found for `Cc1c(COc2cc(OCc3cccc(C#N)c3)c(CN[C@@H](CC(=O)O)C(=O)O)cc2Cl)cccc1-c1ccc2c(c1)OCCO2` [Example 1158, (S)-2-((5-chloro-2-((3-cyanobenzyl)oxy)-4-((3-(2,3-dihydrobenzo[b][1,4]dioxin-6-yl)-2-methylbenzyl)oxy)benzyl)amino)succinic acid] in this work. A pIC50 of 7.00 to 8.00 was found for `Cc1c(COc2cc(OCc3cccc(C#N)c3)c(CNC(Cc3cccc(O)c3)C(=O)O)cc2Cl)cccc1-c1ccc2c(c1)OCCO2` (stereo not shown) [Example 1159, 2-((5-chloro-2-((3-cyanobenzyl)oxy)-4-((3-(2,3-dihydrobenzo[b][1,4]dioxin-6-yl)-2-methylbenzyl)oxy)benzyl)amino)-3-(3-hydroxyphenyl)propanoic acid] in this work. A pIC50 of 7.00 to 8.00 was found for `CSC[C@H](NCc1cc(Cl)c(OCc2cccc(-c3ccc4c(c3)OCCO4)c2C)cc1OCc1cccc(C#N)c1)C(=O)O` [Example 1160, (R)-2-((5-chloro-2-((3-cyanobenzyl)oxy)-4-((3-(2,3-dihydrobenzo[b][1,4]dioxin-6-yl)-2-methylbenzyl)oxy)benzyl)amino)-3-(methylthio)propanoic acid] in this work. A pIC50 of 7.00 to 8.00 was found for `Cc1c(COc2cc(OCc3cccc(C#N)c3)c(CN[C@@H](C(=O)O)c3ccc(O)cc3)cc2Cl)cccc1-c1ccc2c(c1)OCCO2` [Example 1161, (R)-2-((5-chloro-2-((3-cyanobenzyl)oxy)-4-((3-(2,3-dihydrobenzo[b][1,4]dioxin-6-yl)-2-methylbenzyl)oxy)benzyl)amino)-2-(4-hydroxyphenyl)acetic acid] in this work. A pIC50 of 4.70 to 7.00 was found for `Cc1c(COc2cc(OCc3cccc(C#N)c3)c(CNC(C(=O)O)C(F)(F)F)cc2Cl)cccc1-c1ccc2c(c1)OCCO2` (stereo not shown) [Example 1162, 2-((5-chloro-2-((3-cyanobenzyl)oxy)-4-((3-(2,3-dihydrobenzo[b][1,4]dioxin-6-yl)-2-methylbenzyl)oxy)benzyl)amino)-3,3,3-trifluoropropanoic acid] in this work. A pIC50 of 8.00 to 9.22 was found for `Cc1c(COc2cc(OCc3cccc(C#N)c3)c(CN[C@@H](C(=O)O)[C@@H](C)O)cc2Cl)cccc1-c1ccc2c(c1)OCCO2` [Example 1163, (2R,3R)-2-((5-chloro-2-((3-cyanobenzyl)oxy)-4-((3-(2,3-dihydrobenzo[b][1,4]dioxin-6-yl)-2-methylbenzyl)oxy)benzyl)amino)-3-hydroxybutanoic acid] in this work. A pIC50 of 8.00 to 9.22 was found for `Cc1c(COc2cc(OCc3cccc(C#N)c3)c(CNC(Cc3c[nH]cn3)C(=O)O)cc2Cl)cccc1-c1ccc2c(c1)OCCO2` (stereo not shown) [Example 1164, 2-((5-chloro-2-((3-cyanobenzyl)oxy)-4-((3-(2,3-dihydrobenzo[b][1,4]dioxin-6-yl)-2-methylbenzyl)oxy)benzyl)amino)-3-(1H-imidazol-4-yl)propanoic acid] in this work. A pIC50 of 8.00 to 9.22 was found for `Cc1c(COc2cc(OCc3cccc(C#N)c3)c(CN3CCCC3C(=O)O)cc2Cl)cccc1-c1ccc2c(c1)OCCO2` (stereo not shown) [Example 1165, 1-(5-chloro-2-((3-cyanobenzyl)oxy)-4-((3-(2,3-dihydrobenzo[b][1,4]dioxin-6-yl)-2-methylbenzyl)oxy)benzyl)pyrrolidine-2-carboxylic acid] in this work. A pIC50 of 7.00 to 8.00 was found for `Cc1c(COc2cc(OCc3cccc(C#N)c3)c(CNC(Cc3c[nH]c4ccc(O)cc34)C(=O)O)cc2Cl)cccc1-c1ccc2c(c1)OCCO2` (stereo not shown) [Example 1167, 2-((5-chloro-2-((3-cyanobenzyl)oxy)-4-((3-(2,3-dihydrobenzo[b][1,4]dioxin-6-yl)-2-methylbenzyl)oxy)benzyl)amino)-3-(5-hydroxy-1H-indol-3-yl)propanoic acid] in this work. A pIC50 of 4.70 to 7.00 was found for `Cc1c(COc2cc(OCc3cccc(C#N)c3)c(CNC(Cc3cn(C)c4ccccc34)C(=O)O)cc2Cl)cccc1-c1ccc2c(c1)OCCO2` (stereo not shown) [Example 1168, 2-((5-chloro-2-((3-cyanobenzyl)oxy)-4-((3-(2,3-dihydrobenzo[b][1,4]dioxin-6-yl)-2-methylbenzyl)oxy)benzyl)amino)-3-(1-methyl-1H-indol-3-yl)propanoic acid] in this work. A pIC50 of 8.00 to 9.22 was found for `Cc1c(COc2cc(OCc3cccc(C#N)c3)c(CN[C@H](C)C(=O)O)cc2Cl)cccc1-c1ccc2c(c1)OCCO2` [Example 1169, (R)-2-((5-chloro-2-((3-cyanobenzyl)oxy)-4-((3-(2,3-dihydrobenzo[b][1,4]dioxin-6-yl)-2-methylbenzyl)oxy)benzyl)amino)propanoic acid] in this work. A pIC50 of 8.00 to 9.22 was found for `Cc1c(COc2cc(OCc3cccc(C#N)c3)c(CNCCO)cc2Cl)cccc1-c1ccc2c(c1)OCCO2` [Example 1170, 3-((4-chloro-5-((3-(2,3-dihydrobenzo[b][1,4]dioxin-6-yl)-2-methylbenzyl)oxy)-2-(((2-hydroxyethyl)amino)methyl)phenoxy)methyl)benzonitrile] in this work. A pIC50 of 7.00 to 8.00 was found for `Cc1c(COc2cc(OCc3cccc(C#N)c3)c(CN(Cc3ccccc3)[C@@H](CO)C(=O)O)cc2Cl)cccc1-c1ccc2c(c1)OCCO2` [Example 1171, (S)-2-(benzyl(5-chloro-2-((3-cyanobenzyl)oxy)-4-((3-(2,3-dihydrobenzo[b][1,4]dioxin-6-yl)-2-methylbenzyl)oxy)benzyl)amino)-3-hydroxypropanoic acid] in this work. A pIC50 of 8.00 to 9.22 was found for `Cc1c(COc2cc(OCc3cccc(C#N)c3)c(CNC(CN(C)C)C(=O)O)cc2Cl)cccc1-c1ccc2c(c1)OCCO2` (stereo not shown) [Example 1172, 2-((5-chloro-2-((3-cyanobenzyl)oxy)-4-((3-(2,3-dihydrobenzo[b][1,4]dioxin-6-yl)-2-methylbenzyl)oxy)benzyl)amino)-3-(dimethylamino)propanoic acid] in this work. A pIC50 of 8.00 to 9.22 was found for `Cc1c(COc2cc(OCc3cccc(C#N)c3)c(CN[C@@H](CCCCN(C)C)C(=O)O)cc2Cl)cccc1-c1ccc2c(c1)OCCO2` [Example 1173, (S)-2-((5-chloro-2-((3-cyanobenzyl)oxy)-4-((3-(2,3-dihydrobenzo[b][1,4]dioxin-6-yl)-2-methylbenzyl)oxy)benzyl)amino)-6-(dimethylamino)hexanoic acid] in this work. A pIC50 of 8.00 to 9.22 was found for `Cc1c(COc2cc(OCc3cccc(C#N)c3)c(CN[C@@H](CC[S+](C)[O-])C(=O)O)cc2Cl)cccc1-c1ccc2c(c1)OCCO2` (stereo partly drawn) [Example 1174, (2S)-2-((5-chloro-2-((3-cyanobenzyl)oxy)-4-((3-(2,3-dihydrobenzo[b][1,4]dioxin-6-yl)-2-methylbenzyl)oxy)benzyl)amino)-4-(methylsulfinyl)butanoic acid] in this work. A pIC50 of 7.00 to 8.00 was found for `Cc1c(COc2cc(OCc3cccc(C#N)c3)c(CN[C@H](CC(=O)O)C(=O)O)cc2Cl)cccc1-c1ccc2c(c1)OCCO2` [Example 1175, (R)-2-((5-chloro-2-((3-cyanobenzyl)oxy)-4-((3-(2,3-dihydrobenzo[b][1,4]dioxin-6-yl)-2-methylbenzyl)oxy)benzyl)amino)succinic acid] in this work. A pIC50 of 8.00 to 9.22 was found for `Cc1c(COc2cc(OCc3cccc(C#N)c3)c(CN[C@@H](Cc3cn(C)cn3)C(=O)O)cc2Cl)cccc1-c1ccc2c(c1)OCCO2` [Example 1176, (S)-2-((5-chloro-2-((3-cyanobenzyl)oxy)-4-((3-(2,3-dihydrobenzo[b][1,4]dioxin-6-yl)-2-methylbenzyl)oxy)benzyl)amino)-3-(1-methyl-1H-imidazol-4-yl)propanoic acid] in this work. A pIC50 of 8.00 to 9.22 was found for `Cc1c(COc2cc(OCc3cccc(C#N)c3)c(CNC3(C(=O)O)CC3)cc2Cl)cccc1-c1ccc2c(c1)OCCO2` [Example 1177, 1-((5-chloro-2-((3-cyanobenzyl)oxy)-4-((3-(2,3-dihydrobenzo[b][1,4]dioxin-6-yl)-2-methylbenzyl)oxy)benzyl)amino)cyclopropanecarboxylic acid] in this work. A pIC50 of 7.00 to 8.00 was found for `Cc1c(COc2cc(OCc3cccc(C#N)c3)c(CNC(Cc3nccs3)C(=O)O)cc2Cl)cccc1-c1ccc2c(c1)OCCO2` (stereo not shown) [Example 1178, 2-((5-chloro-2-((3-cyanobenzyl)oxy)-4-((3-(2,3-dihydrobenzo[b][1,4]dioxin-6-yl)-2-methylbenzyl)oxy)benzyl)amino)-3-(thiazol-2-yl)propanoic acid] in this work. A pIC50 of 7.00 to 8.00 was found for `COC(C)(C)C(NCc1cc(Cl)c(OCc2cccc(-c3ccc4c(c3)OCCO4)c2C)cc1OCc1cccc(C#N)c1)C(=O)O` (stereo not shown) [Example 1179, 2-((5-chloro-2-((3-cyanobenzyl)oxy)-4-((3-(2,3-dihydrobenzo[b][1,4]dioxin-6-yl)-2-methylbenzyl)oxy)benzyl)amino)-3-methoxy-3-methylbutanoic acid] in this work. A pIC50 of 7.00 to 8.00 was found for `Cc1c(COc2cc(OCc3cccc(C#N)c3)c(CN[C@@H](CC#N)C(=O)O)cc2Cl)cccc1-c1ccc2c(c1)OCCO2` [Example 1180, (S)-2-((5-chloro-2-((3-cyanobenzyl)oxy)-4-((3-(2,3-dihydrobenzo[b][1,4]dioxin-6-yl)-2-methylbenzyl)oxy)benzyl)amino)-3-cyanopropanoic acid] in this work. A pIC50 of 7.00 to 8.00 was found for `Cc1c(COc2cc(OCc3cccc(C#N)c3)c(CNC(Cc3ccccc3O)C(=O)O)cc2Cl)cccc1-c1ccc2c(c1)OCCO2` (stereo not shown) [Example 1181, 2-((5-chloro-2-((3-cyanobenzyl)oxy)-4-((3-(2,3-dihydrobenzo[b][1,4]dioxin-6-yl)-2-methylbenzyl)oxy)benzyl)amino)-3-(2-hydroxyphenyl)propanoic acid] in this work. A pIC50 of 8.00 to 9.22 was found for `Cc1c(COc2cc(OCc3cccc(C#N)c3)c(CNC(CCS(C)(=O)=O)C(=O)O)cc2Cl)cccc1-c1ccc2c(c1)OCCO2` (stereo not shown) [Example 1182, 2-((5-chloro-2-((3-cyanobenzyl)oxy)-4-((3-(2,3-dihydrobenzo[b][1,4]dioxin-6-yl)-2-methylbenzyl)oxy)benzyl)amino)-4-(methylsulfonyl)butanoic acid] in this work. A pIC50 of 8.00 to 9.22 was found for `Cc1c(COc2cc(OCc3cccc(C#N)c3)c(CN(C)[C@@H](CO)C(=O)O)cc2Cl)cccc1-c1ccc2c(c1)OCCO2` [Example 1183, (S)-2-((5-chloro-2-((3-cyanobenzyl)oxy)-4-((3-(2,3-dihydrobenzo[b][1,4]dioxin-6-yl)-2-methylbenzyl)oxy)benzyl)(methyl)amino)-3-hydroxypropanoic acid] in this work.
